Laboratory results reported in patent US11479570B2, “Pentafluorophosphate derivative, its uses and an appropriate manufacturing method” (FREIE UNIVERSITÄT BERLIN, priority 2017, dated 2022).
Entries after “also recorded” stand apart in the source; their conditions may differ. Where two headings read alike, the source gives them in different places.

How the values were obtained:
[1] = target: T1, protein tyrosine phosphatase PTP1B (Homo sapiens, UniProt P18031); settings: data published (literature), cited from earlier work
T1 sequence (P18031 1-435): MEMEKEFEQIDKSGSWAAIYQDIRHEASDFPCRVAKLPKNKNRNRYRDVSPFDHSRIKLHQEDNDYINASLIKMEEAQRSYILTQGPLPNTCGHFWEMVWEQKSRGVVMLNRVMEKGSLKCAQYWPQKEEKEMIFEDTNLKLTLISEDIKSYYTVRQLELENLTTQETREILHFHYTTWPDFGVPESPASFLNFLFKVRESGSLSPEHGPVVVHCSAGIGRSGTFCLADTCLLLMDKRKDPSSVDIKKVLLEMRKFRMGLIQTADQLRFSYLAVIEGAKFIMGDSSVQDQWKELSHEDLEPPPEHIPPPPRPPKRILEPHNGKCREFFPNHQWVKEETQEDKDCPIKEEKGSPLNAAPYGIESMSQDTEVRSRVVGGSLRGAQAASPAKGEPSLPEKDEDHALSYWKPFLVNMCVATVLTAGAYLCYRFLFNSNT

[2] = Lipophilicity from elution properties on RP-HPLC; format: physicochemical; settings: in accordance with elution properties on RP-HPLC
Procedure: Formation of α,α-difluorobenzyl-penta-P-fluorophosphate 13 was confirmed by HPLC-MS analysis displaying very uncommon elution properties both on C8 and C18 reversed phase silica. While the phosphonic acid 12 eluted at 3.4 min on RP-18 material displaying a symmetric peak and a characteristic UV spectrum, compound 13 interacted strongly with the column material, resulting in elution after 9 min at the very end of the default gradient (5 to 95% ACN in water). Additionally, no absorbance of 13 at 210 nm, 254 nm and 290 nm could be observed. These properties hampered chromatographic purifications like reverse phase MPLC.

[3] = Stability in aqueous solution by 19F-NMR spectroscopy; format: physicochemical; settings: pH range from 2 to 12 in aqueous solution, D2O, after several hours
From the text: (§1) In order to enhance the solubility in aqueous systems and to exclude any interfering effects of the counter ion NMe4^+, compound 13 was transferred into its sodium salt 13-Na.

[4] = Solubility; format: physicochemical; settings: tetramethylammonium salt
From the text: The obtained product 14-Na (cf. FIG. 5B) was stable and well soluble in the used biochemical buffer.

[5] = target: T1, protein tyrosine phosphatase PTP1B; test: PTP1B enzyme assay (detection of chromogenic para-nitrophenolate); format: biochemical; settings: for Ki: detection of the chromogenic para-nitrophenolate at 405 nm, read-out: inhibition constant KI (inhibitory effect on PTP1B in an enzyme assay)
From the text: as §1
During the measurements of the inhibitory effect of 13-Na, inhibitors with known inhibition constants were used in parallel as positive controls in order to verify the reliability of the assay.

## O=P(O)(O)Cc1ccccc1 [Benzyl phosphonic acid]
[1]; comparative example
  Inhibitory effect on PTP1B in an enzyme assay (in words): No inhibition

## C[N+](C)(C)C.FC(F)(c1ccccc1)[P-](F)(F)(F)(F)F [compound 13, tetramethylammonium (difluoro-(phenyl)-methyl)-penta-P-fluorophosphate]
[2]
  lipophilicity compared to phosphonate 12: significantly more lipophilic
[3]
  stability (degradation or hydrolysis): no degradation or hydrolysis could be observed
[4]
  solubility in acetonitrile versus water: more soluble in acetonitrile than in water
[5]
  inhibitory potential towards PTP1B (in words): reversible inhibitor; also recorded: significant affinity
  Ki: 1.8 mM

## C[N+](C)(C)C.FC(F)(c1ccc2ccccc2c1)[P-](F)(F)(F)(F)F [compound 14, tetramethylammonium (difluoro-(naphtha-2-yl)-methyl)-penta-P-fluorophosphate]
[5]
  Ki: 0.026 mM

## Fluorobenzyl phosphonic acid
[1]; comparative examples, read-out: Inhibitory effect on PTP1B in an enzyme assay, KI
  Ki: ~5 mM
